Experimental data as given in article PMC12090182, “Repurposing of the RIPK1-Selective Benzo[1,4]oxazepin-4-one Scaffold for the Development of a Type III LIMK1/2 Inhibitor” (ACS Chemical Biology, 2025).

Columns and labels:
Format in all cases: binding
RET(V804L) = RET(V804L) (Homo sapiens, UniProt P07949, V804L); assay: biochemical; conditions: compound concentration 100 nM; Entrez RET; read-out: Percent Control
FLT3(K663Q) = FLT3(K663Q) (Homo sapiens, UniProt P36888, K663Q); assay: biochemical; conditions: compound concentration 100 nM; Entrez FLT3; read-out: Percent Control
[1] = target: 468 kinases including some pathogenic mutants (Homo sapiens, UniProt Q08881); assay: biochemical; conditions: ITK (Entrez ITK), 100 nM; read-out: Percent Control
[2] = target: 468 kinases including some pathogenic mutants (Homo sapiens, UniProt P07948); assay: biochemical; conditions: LYN (Entrez LYN), 100 nM; read-out: Percent Control
Sequence of 468 kinases including some pathogenic mutants (Homo sapiens, UniProt P07948) (P07948 whole entry, stated change not applied): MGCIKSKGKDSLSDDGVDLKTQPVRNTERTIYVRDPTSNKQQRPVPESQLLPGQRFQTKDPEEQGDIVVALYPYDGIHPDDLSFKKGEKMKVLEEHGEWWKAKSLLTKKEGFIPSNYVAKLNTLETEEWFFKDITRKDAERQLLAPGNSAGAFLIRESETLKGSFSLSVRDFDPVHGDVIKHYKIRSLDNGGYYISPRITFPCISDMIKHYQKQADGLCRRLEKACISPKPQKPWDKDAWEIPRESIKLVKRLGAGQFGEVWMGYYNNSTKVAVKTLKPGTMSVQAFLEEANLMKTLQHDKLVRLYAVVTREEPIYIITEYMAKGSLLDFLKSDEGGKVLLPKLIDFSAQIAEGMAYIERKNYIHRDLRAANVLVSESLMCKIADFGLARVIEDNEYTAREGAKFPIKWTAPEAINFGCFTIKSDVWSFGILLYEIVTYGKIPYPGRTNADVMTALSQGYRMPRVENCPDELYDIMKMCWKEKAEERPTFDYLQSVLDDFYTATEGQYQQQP

KIT(A829P) = KIT(A829P) (Homo sapiens, UniProt P10721, A829P); assay: biochemical; conditions: compound concentration 100 nM; Entrez KIT; read-out: Percent Control
STK6A = STK6A (Homo sapiens, UniProt O14965); assay: DSF selectivity screening; conditions: 10 μM compound
Sequence of STK6A (O14965 122-403): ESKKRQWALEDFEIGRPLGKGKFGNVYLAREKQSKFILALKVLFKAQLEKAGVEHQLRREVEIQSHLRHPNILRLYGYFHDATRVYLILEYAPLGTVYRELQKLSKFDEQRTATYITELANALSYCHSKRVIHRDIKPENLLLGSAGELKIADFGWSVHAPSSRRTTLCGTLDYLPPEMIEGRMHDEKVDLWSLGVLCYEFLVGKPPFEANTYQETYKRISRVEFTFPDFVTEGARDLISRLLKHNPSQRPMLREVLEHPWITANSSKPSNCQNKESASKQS
Procedure: (§1) The assay was performed as previously described.[29],[35] Briefly, recombinant protein kinase domains at a concentration of 2 μM were mixed with a 10 μM compound in a buffer containing 20 mM HEPES, pH 7.5, and 500 mM NaCl. SYPRO Orange (5000×, Invitrogen) was added as a fluorescence probe (1 μL per mL). Subsequently, temperature-dependent protein unfolding profiles were measured using a QuantStudio 5 real-time PCR machine (Thermo Fisher). Excitation and emission filters were set to 465 and 590 nm, respectively. The temperature was raised with a step rate of 3 °C per minute. Data points were analyzed with internal software (Thermal Shift Software version 1.4, Thermo Fisher) using the Boltzmann equation to determine the inflection point of the transition curve (Table S4).

NEK1A = NEK1A (Homo sapiens, UniProt Q96PY6); assay: DSF selectivity screening; conditions: 10 μM compound
Procedure: as §1

DCAMKL1A = DCAMKL1A (Homo sapiens, UniProt O15075); assay: DSF selectivity screening; conditions: 10 μM compound
Sequence of DCAMKL1A (O15075 372-649): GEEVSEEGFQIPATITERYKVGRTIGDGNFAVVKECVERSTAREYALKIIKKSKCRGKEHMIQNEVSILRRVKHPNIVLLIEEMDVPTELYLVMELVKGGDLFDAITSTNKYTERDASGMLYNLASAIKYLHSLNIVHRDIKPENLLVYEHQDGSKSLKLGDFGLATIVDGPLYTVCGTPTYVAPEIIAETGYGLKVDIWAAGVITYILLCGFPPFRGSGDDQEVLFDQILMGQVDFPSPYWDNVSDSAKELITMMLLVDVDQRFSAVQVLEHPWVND
Procedure: as §1

FECH = FECH (Homo sapiens, UniProt P22830); assay: DSF selectivity screening; conditions: 10 μM compound
Sequence of FECH (P22830 55-423): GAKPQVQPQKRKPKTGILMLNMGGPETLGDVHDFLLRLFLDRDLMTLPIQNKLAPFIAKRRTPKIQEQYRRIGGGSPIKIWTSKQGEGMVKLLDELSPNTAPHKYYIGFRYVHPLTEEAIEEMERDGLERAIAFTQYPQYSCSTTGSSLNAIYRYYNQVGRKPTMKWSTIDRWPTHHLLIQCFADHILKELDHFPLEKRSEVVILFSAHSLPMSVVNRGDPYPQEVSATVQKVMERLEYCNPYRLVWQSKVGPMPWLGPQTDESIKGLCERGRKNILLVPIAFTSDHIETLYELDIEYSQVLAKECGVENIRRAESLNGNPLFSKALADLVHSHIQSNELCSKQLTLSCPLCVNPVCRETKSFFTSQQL
Procedure: as §1

PIM3A = PIM3A (Homo sapiens, UniProt Q86V86); assay: DSF selectivity screening; conditions: 10 μM compound
Procedure: as §1

CHEK2A = CHEK2A (Homo sapiens, UniProt O96017); assay: DSF selectivity screening; conditions: 10 μM compound
Sequence of CHEK2A (O96017 210-531): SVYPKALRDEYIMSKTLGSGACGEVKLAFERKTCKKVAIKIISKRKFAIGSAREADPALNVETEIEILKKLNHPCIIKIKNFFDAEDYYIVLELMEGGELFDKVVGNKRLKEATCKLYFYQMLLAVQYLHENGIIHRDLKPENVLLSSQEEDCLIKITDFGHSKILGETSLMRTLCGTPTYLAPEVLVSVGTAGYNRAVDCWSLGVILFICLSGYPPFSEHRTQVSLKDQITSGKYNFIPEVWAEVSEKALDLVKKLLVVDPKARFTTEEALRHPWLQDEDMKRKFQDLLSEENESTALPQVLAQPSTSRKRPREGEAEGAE
Procedure: as §1

DYRK1AA = DYRK1AA (Homo sapiens, UniProt Q13627); assay: DSF selectivity screening; conditions: 10 μM compound
Procedure: as §1

DAPK3A = DAPK3A (Homo sapiens, UniProt O43293); assay: DSF selectivity screening; conditions: 10 μM compound
Procedure: as §1

MST3A = MST3A (Homo sapiens, UniProt Q9Y6E0); assay: DSF selectivity screening; conditions: 10 μM compound
Procedure: as §1

FGFR2A = FGFR2A (Homo sapiens, UniProt P21802); assay: DSF selectivity screening; conditions: 10 μM compound
Sequence of FGFR2A (P21802 458-770): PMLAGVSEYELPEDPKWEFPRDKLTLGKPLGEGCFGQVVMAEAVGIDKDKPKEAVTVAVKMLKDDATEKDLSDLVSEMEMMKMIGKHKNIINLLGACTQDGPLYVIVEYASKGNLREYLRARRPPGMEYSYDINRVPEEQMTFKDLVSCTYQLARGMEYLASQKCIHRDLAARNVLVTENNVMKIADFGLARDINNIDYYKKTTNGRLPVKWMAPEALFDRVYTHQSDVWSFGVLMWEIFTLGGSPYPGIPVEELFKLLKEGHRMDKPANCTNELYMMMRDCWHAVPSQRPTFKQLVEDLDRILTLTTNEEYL
Procedure: as §1

RPS6KA5A = assay: DSF selectivity screening; conditions: 10 μM compound
Procedure: as §1

MARK4A = MARK4A (Homo sapiens, UniProt Q96L34); assay: DSF selectivity screening; conditions: 10 μM compound
Procedure: as §1

MELKA = MELKA (Homo sapiens, UniProt Q14680); assay: DSF selectivity screening; conditions: 10 μM compound
Procedure: as §1

STK17AA = STK17AA (Homo sapiens, UniProt Q9UEE5); assay: DSF selectivity screening; conditions: 10 μM compound
Procedure: as §1

PAK1A = PAK1A (Homo sapiens, UniProt Q13153); assay: DSF selectivity screening; conditions: 10 μM compound
Sequence of PAK1A (Q13153 249-545): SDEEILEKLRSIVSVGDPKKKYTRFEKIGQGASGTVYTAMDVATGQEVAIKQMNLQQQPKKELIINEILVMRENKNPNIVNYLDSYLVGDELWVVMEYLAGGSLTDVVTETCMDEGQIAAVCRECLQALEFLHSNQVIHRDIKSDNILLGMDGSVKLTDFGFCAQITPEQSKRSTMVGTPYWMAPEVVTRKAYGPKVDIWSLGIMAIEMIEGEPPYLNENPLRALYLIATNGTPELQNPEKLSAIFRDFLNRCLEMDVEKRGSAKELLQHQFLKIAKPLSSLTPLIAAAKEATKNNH
Procedure: as §1

STK10A = STK10A (Homo sapiens, UniProt O94804); assay: DSF selectivity screening; conditions: 10 μM compound
Sequence of STK10A (O94804 18-317): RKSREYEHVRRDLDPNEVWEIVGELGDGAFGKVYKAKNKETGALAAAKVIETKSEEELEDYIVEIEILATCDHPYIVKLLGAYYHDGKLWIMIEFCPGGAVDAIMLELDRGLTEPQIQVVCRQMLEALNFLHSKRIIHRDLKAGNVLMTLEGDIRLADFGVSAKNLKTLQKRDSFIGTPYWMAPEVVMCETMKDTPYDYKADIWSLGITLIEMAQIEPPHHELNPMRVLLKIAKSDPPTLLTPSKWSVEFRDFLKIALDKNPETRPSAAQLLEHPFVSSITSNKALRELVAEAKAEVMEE
Procedure: as §1

CAMK1GA = CAMK1GA (Homo sapiens, UniProt Q96NX5); assay: DSF selectivity screening; conditions: 10 μM compound
Sequence of CAMK1GA (Q96NX5 whole entry): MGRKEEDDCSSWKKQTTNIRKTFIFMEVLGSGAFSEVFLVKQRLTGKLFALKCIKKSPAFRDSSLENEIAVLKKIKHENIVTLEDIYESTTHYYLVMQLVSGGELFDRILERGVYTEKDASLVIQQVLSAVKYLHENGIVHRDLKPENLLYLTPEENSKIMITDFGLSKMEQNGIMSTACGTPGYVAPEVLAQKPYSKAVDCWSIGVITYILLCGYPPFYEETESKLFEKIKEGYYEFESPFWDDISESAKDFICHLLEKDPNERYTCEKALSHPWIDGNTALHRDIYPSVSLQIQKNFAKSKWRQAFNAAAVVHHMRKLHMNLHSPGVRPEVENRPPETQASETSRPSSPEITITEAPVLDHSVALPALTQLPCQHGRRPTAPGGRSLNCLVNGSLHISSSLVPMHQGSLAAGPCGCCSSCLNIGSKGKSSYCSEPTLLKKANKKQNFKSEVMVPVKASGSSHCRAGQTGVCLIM
Procedure: as §1

MAP2K1A = MAP2K1A (Homo sapiens, UniProt Q02750); assay: DSF selectivity screening; conditions: 10 μM compound
Procedure: as §1

EPHB1A = EPHB1A (Homo sapiens, UniProt P54762); assay: DSF selectivity screening; conditions: 10 μM compound
Sequence of EPHB1A (P54762 602-896): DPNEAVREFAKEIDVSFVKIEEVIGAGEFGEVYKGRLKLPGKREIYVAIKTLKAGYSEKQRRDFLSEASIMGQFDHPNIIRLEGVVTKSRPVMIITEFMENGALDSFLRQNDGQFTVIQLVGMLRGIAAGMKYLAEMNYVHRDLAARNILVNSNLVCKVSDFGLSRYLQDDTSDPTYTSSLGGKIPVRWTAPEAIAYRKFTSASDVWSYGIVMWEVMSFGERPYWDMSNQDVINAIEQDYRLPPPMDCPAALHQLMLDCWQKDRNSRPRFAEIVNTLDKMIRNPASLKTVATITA
Procedure: as §1

FESA = FESA (Homo sapiens, UniProt P07332); assay: DSF selectivity screening; conditions: 10 μM compound
Procedure: as §1

MAP3K5A = MAP3K5A (Homo sapiens, UniProt Q99683); assay: DSF selectivity screening; conditions: 10 μM compound
Sequence of MAP3K5A (Q99683 659-951): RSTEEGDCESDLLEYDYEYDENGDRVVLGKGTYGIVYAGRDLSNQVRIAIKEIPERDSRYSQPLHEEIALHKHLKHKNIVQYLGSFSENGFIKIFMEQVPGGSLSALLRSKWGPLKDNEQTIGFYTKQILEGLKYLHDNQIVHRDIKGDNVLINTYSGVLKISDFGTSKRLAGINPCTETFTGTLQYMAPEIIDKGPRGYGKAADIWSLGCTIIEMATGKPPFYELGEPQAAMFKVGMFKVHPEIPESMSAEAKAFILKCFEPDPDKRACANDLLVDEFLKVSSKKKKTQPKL
Procedure: as §1

FGFR3A = FGFR3A (Homo sapiens, UniProt P22607); assay: DSF selectivity screening; conditions: 10 μM compound
Procedure: as §1

NQO2A = NQO2A (Homo sapiens, UniProt P16083); assay: DSF selectivity screening; conditions: 10 μM compound
Sequence of NQO2A (P16083 whole entry): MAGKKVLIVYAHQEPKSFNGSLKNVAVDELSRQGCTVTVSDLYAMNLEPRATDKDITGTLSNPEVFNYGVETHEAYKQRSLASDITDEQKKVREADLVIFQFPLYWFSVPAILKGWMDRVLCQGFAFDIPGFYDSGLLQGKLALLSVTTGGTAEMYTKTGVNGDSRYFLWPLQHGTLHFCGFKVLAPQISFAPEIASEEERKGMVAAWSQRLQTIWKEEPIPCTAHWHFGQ
Procedure: as §1

CDC42BPAA = assay: DSF selectivity screening; conditions: 10 μM compound
Procedure: as §1

CDK2A = CDK2A (Homo sapiens, UniProt P24941); assay: DSF selectivity screening; conditions: 10 μM compound
Procedure: as §1

MAPK1A = MAPK1A (Homo sapiens, UniProt P28482); assay: DSF selectivity screening; conditions: 10 μM compound
Procedure: as §1

PCTK1A = PCTK1A (Homo sapiens, UniProt Q00536); assay: DSF selectivity screening; conditions: 10 μM compound
Procedure: as §1

BMXA = BMXA (Homo sapiens, UniProt P51813); assay: DSF selectivity screening; conditions: 10 μM compound
Sequence of BMXA (P51813 411-675): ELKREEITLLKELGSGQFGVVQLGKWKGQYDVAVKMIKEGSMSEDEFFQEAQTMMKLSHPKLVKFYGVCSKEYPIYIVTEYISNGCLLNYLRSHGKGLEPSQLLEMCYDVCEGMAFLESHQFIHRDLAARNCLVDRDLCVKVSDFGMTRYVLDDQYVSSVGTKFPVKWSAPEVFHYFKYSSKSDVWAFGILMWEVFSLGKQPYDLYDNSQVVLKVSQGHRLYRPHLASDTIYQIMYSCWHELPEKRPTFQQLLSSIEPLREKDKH
Procedure: as §1

CAMK4A = CAMK4A (Homo sapiens, UniProt Q16566); assay: DSF selectivity screening; conditions: 10 μM compound
Procedure: as §1

HIPK2 = HIPK2 (Homo sapiens, UniProt Q9H2X6); assay: DSF selectivity screening; conditions: 10 μM compound
Procedure: as §1

MAPK8B = MAPK8B (Homo sapiens, UniProt P45983); assay: DSF selectivity screening; conditions: 10 μM compound
Sequence of MAPK8B (P45983 1-364): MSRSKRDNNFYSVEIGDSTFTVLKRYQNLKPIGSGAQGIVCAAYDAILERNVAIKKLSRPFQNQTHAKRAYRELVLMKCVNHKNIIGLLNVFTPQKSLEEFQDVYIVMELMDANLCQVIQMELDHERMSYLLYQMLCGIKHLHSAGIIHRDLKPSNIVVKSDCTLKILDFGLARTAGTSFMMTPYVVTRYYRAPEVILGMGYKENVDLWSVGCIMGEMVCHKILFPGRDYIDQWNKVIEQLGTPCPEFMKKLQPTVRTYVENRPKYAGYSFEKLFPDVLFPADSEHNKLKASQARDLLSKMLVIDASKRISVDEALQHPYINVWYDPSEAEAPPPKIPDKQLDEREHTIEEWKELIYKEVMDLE
Procedure: as §1

RIOK1A = RIOK1A (Homo sapiens, UniProt Q9BRS2); assay: DSF selectivity screening; conditions: 10 μM compound
Procedure: as §1

FGFR1B = FGFR1B (Homo sapiens, UniProt P11362); assay: DSF selectivity screening; conditions: 10 μM compound
Procedure: as §1

CN1C(=O)[C@@H](N2CCc3c(nn(Cc4ccccc4)c3C(N)=O)C2=O)COc2cc(Cl)ccc21 [Compound 10, (S)-2-benzyl-6-(8-chloro-5-methyl-4-oxo-2,3,4,5-tetrahydrobenzo[b][1,4]oxazepin-3-yl)-7-oxo-4,5,6,7-tetrahydro-2H-pyrazolo[3,4-c]pyridine-3-carboxamide]
remaining activity at 0.1 µM (RET(V804L)): 84% | remaining activity at 0.1 µM (FLT3(K663Q)): 100% | remaining activity at 0.1 µM [1]: 79% | remaining activity at 0.1 µM [2]: 100% | remaining activity at 0.1 µM (KIT(A829P)): 86% | ΔTm at 10 µM (STK6A): 0.1 °C | ΔTm at 10 µM (NEK1A): 0.1 °C | ΔTm at 10 µM (DCAMKL1A): 0 °C | ΔTm at 10 µM (FECH): -0.6 °C | ΔTm at 10 µM (PIM3A): 0.5 °C | ΔTm at 10 µM (CHEK2A): -0.1 °C | ΔTm at 10 µM (DYRK1AA): 0 °C | ΔTm at 10 µM (DAPK3A): -0.1 °C | ΔTm at 10 µM (MST3A): -0.3 °C | ΔTm at 10 µM (FGFR2A): 0.1 °C | ΔTM (RPS6KA5A): -0.1 K | ΔTm at 10 µM (MARK4A): -1.9 °C | ΔTm at 10 µM (MELKA): 0.1 °C | ΔTm at 10 µM (STK17AA): 0 °C | ΔTm at 10 µM (PAK1A): 0.2 °C | ΔTm at 10 µM (STK10A): 0.4 °C | ΔTm at 10 µM (CAMK1GA): -0.2 °C | ΔTm at 10 µM (MAP2K1A): 0.1 °C | ΔTm at 10 µM (EPHB1A): 0.1 °C | ΔTm at 10 µM (FESA): 0.1 °C | ΔTm at 10 µM (MAP3K5A): 0 °C | ΔTm at 10 µM (FGFR3A): 0.1 °C | ΔTm at 10 µM (NQO2A): 0.6 °C | ΔTM (CDC42BPAA): -0.1 K | ΔTm at 10 µM (CDK2A): 0 °C | ΔTm at 10 µM (MAPK1A): 0.1 °C | ΔTm at 10 µM (PCTK1A): 0.2 °C | ΔTm at 10 µM (BMXA): 0.1 °C | ΔTm at 10 µM (CAMK4A): 0.1 °C | ΔTm at 10 µM (HIPK2): 0.3 °C | ΔTm at 10 µM (MAPK8B): 0.1 °C | ΔTm at 10 µM (RIOK1A): 0.5 °C | ΔTm at 10 µM (FGFR1B): -0.1 °C
